Laboratory results reported in ChEMBL document CHEMBL6115036, “Exploration of membrane-active cephalosporin derivatives as potent antibacterial agents against Staphylococcus aureus biofilms and persisters” (Eur J Med Chem, 2025).
Converted amounts (≈) assume the structure as drawn. The source made the active and inactive calls. No cut-off for these calls is given here.

Experiments:
[1] = test system: Stenotrophomonas maltophilia; assay: Antimicrobial activity against Stenotrophomonas maltophilia incubated for 16 to 18 hrs by broth dilution assay; format: functional; details: time 16-18 hrs
[2] = test system: Escherichia coli; assay: Antimicrobial activity against Escherichia coli incubated for 16 to 18 hrs by broth dilution assay; format: functional; details: time 16-18 hrs
[3] = test system: Enterococcus faecalis; assay: Antimicrobial activity against Enterococcus faecalis incubated for 16 to 18 hrs by broth dilution assay; format: functional; details: time 16-18 hrs
[4] = Hemolytic activity in sheep red blood cells incubated for 1 hr; format: toxicity, cell-based, Ovis aries, Erythrocyte
[5] = test system: Staphylococcus aureus; assay: Antimicrobial activity against Staphylococcus aureus incubated for 16 to 18 hrs by broth dilution assay; format: functional; details: time 16-18 hrs
[6] = test system: Staphylococcus aureus; assay: Induction of cytoplasmic membrane depolarization in Staphylococcus aureus assessed as increase in fluorescence intensity at 16 ug/ml measured for 20 mins by DiSC3(5) dye based analysis; format: functional, organism-based; details: dose 16.0 µg/ml
[7] = test system: Staphylococcus aureus; assay: Induction of inner membrane permeability in Staphylococcus aureus assessed as increase in fluorescence intensity at 16 ug/ml measured for 20 mins by PI dye based analysis; format: functional, organism-based; details: dose 16.0 µg/ml

Row | SMILES | MIC [1] | MIC [2] | MIC [3] | HC50 at 1 h [4] | MIC [5] | Activity [6] | Activity [7]
1 | CCCCCCCC[n+]1ccc(-c2cc[n+](CC3=C(C(=O)OCc4ccc(OC)cc4)N4C(=O)[C@@H](NC(=O)Cc5ccccc5)[C@H]4SC3)cc2)cc1.[I-].[I-] | 128 µg/mL | 128 µg/mL | 32 µg/mL | > 1280 µg/mL | 0.5 µg/mL | – | –
2 | CCCCCCCCCCNC(=O)c1cc[n+](CC2=C(C(=O)O)N3C(=O)[C@@H](NC(=O)Cc4ccccc4)[C@H]3SC2)cc1.[I-] | > 128 µg/mL | > 128 µg/mL | 16 µg/mL | 321 µg/mL | 0.063 µg/mL | inactive | inactive
3 | CCCCCCCCCC[n+]1ccc(C(=O)N[C@@H]2C(=O)N3C(C(=O)O)=C(COC(C)=O)CS[C@H]23)cc1.[I-] | > 128 µg/mL | > 128 µg/mL | 128 µg/mL | – | 128 µg/mL | – | –
4 | CCCCCCNC(=O)c1cc[n+](CC2=C(C(=O)O)N3C(=O)[C@@H](NC(=O)Cc4ccccc4)[C@H]3SC2)cc1.[I-] | 64 µg/mL | 64 µg/mL | 16 µg/mL | > 1280 µg/mL | 0.125 µg/mL | – | –
5 | C[C@@H](O)[C@H]1C(=O)N2C(C(=O)O)=C(S[C@@H]3CN[C@H](C(=O)N(C)C)C3)[C@H](C)[C@H]12 [MEROPENEM] | 0.031 µg/mL (≈ 0.0808 µM) | 0.031 µg/mL (≈ 0.0808 µM) | – | > 1280 µg/mL | – | – | –
6 | CCCCCC[n+]1ccc(-c2cc[n+](CC3=C(C(=O)OCc4ccc(OC)cc4)N4C(=O)[C@@H](NC(=O)Cc5ccccc5)[C@H]4SC3)cc2)cc1.[I-].[I-] | 64 µg/mL | 64 µg/mL | 64 µg/mL | > 1280 µg/mL | 0.5 µg/mL | – | –
7 | CCCCCC[n+]1ccc(SCC2=C(C(=O)OCc3ccc(OC)cc3)N3C(=O)[C@@H](NC(=O)Cc4ccccc4)[C@H]3SC2)cc1.O=C([O-])C(F)(F)F | 64 µg/mL | 64 µg/mL | 16 µg/mL | – | 0.063 µg/mL | – | –
8 | CCCCCCCCCCNC(=O)c1cc[n+](CC2=C(C(=O)OCc3ccc(OC)cc3)N3C(=O)[C@@H](NC(=O)Cc4ccccc4)[C@H]3SC2)cc1.[I-] | – | – | – | – | 0.25 µg/mL | Active | Active
9 | CCCCCCCCNC(=O)c1cc[n+](CC2=C(C(=O)O)N3C(=O)[C@@H](NC(=O)Cc4ccccc4)[C@H]3SC2)cc1.[I-] | > 128 µg/mL | > 128 µg/mL | 16 µg/mL | > 1280 µg/mL | 0.063 µg/mL | inactive | inactive
10 | CCCCCCCCCCNC(=O)c1ccc[n+](CC2=C(C(=O)OCc3ccc(OC)cc3)N3C(=O)[C@@H](NC(=O)Cc4ccccc4)[C@H]3SC2)c1.[I-] | – | – | – | – | 0.25 µg/mL | Active | Active
11 | CC(=O)OCC1=C(C(=O)OC(c2ccccc2)c2ccccc2)N2C(=O)[C@@H](NC(=O)c3cc[n+](C)cc3)[C@H]2SC1.[I-] | > 128 µg/mL | > 128 µg/mL | > 128 µg/mL | – | 128 µg/mL | – | –
12 | CCCCNC(=O)c1ccc[n+](CC2=C(C(=O)O)N3C(=O)[C@@H](NC(=O)Cc4ccccc4)[C@H]3SC2)c1.[I-] | 128 µg/mL | 64 µg/mL | 32 µg/mL | > 1280 µg/mL | 0.125 µg/mL | – | –
13 | CCCCCCCCCCNC(=O)c1ccc[n+](CC2=C(C(=O)O)N3C(=O)[C@@H](NC(=O)Cc4ccccc4)[C@H]3SC2)c1.[I-] | > 128 µg/mL | > 128 µg/mL | 16 µg/mL | 318 µg/mL | 0.063 µg/mL | inactive | inactive
14 | CCCCNC(=O)c1cc[n+](CC2=C(C(=O)OCc3ccc(OC)cc3)N3C(=O)[C@@H](NC(=O)Cc4ccccc4)[C@H]3SC2)cc1.[I-] | – | – | – | – | 0.25 µg/mL | – | –
15 | CC[n+]1ccc(SCC2=C(C(=O)OCc3ccc(OC)cc3)N3C(=O)[C@@H](NC(=O)Cc4ccccc4)[C@H]3SC2)cc1.O=C([O-])C(F)(F)F | 16 µg/mL | 16 µg/mL | 16 µg/mL | – | 0.125 µg/mL | – | –
16 | CCCCCCNC(=O)c1cc[n+](CC2=C(C(=O)OCc3ccc(OC)cc3)N3C(=O)[C@@H](NC(=O)Cc4ccccc4)[C@H]3SC2)cc1.[I-] | – | – | – | – | 0.25 µg/mL | – | –
17 | CCCCCC[n+]1ccc(SCC2=C(C(=O)O)N3C(=O)[C@@H](NC(=O)Cc4ccccc4)[C@H]3SC2)cc1.O=C([O-])C(F)(F)F | 32 µg/mL | 32 µg/mL | 8 µg/mL | – | 0.063 µg/mL | – | –
18 | CCCCCCNC(=O)c1ccc[n+](CC2=C(C(=O)OCc3ccc(OC)cc3)N3C(=O)[C@@H](NC(=O)Cc4ccccc4)[C@H]3SC2)c1.[I-] | – | – | – | – | 0.25 µg/mL | – | –
19 | CC[n+]1ccc(SCC2=C(C(=O)O)N3C(=O)[C@@H](NC(=O)Cc4ccccc4)[C@H]3SC2)cc1.O=C([O-])C(F)(F)F | 8 µg/mL | 8 µg/mL | 8 µg/mL | – | 0.063 µg/mL | – | –
20 | CCCC[n+]1ccc(SCC2=C(C(=O)OCc3ccc(OC)cc3)N3C(=O)[C@@H](NC(=O)Cc4ccccc4)[C@H]3SC2)cc1.O=C([O-])C(F)(F)F | 32 µg/mL | 16 µg/mL | 16 µg/mL | – | 0.125 µg/mL | – | –
